Legend:
Assay type in all cases: cell-based
[1] = tested on: REC-1 cells; assay: Human mantle cell lymphoma cell line REC-1 proliferation suppression test; settings: Rec1, 72 h, compound 10 μM, 3 days, WST-8, read-out: cell survival rate (% of control) REC-1
Protocol: Example 53: Human Mantle Cell Lymphoma Cell Line REC-1 Proliferation Suppression Test
(§1) REC-1 cells (ATCC, CRL-3004) were suspended in medium B, and diluted as appropriate with 0.4% trypan blue solution (Sigma-Aldrich Co. LLC.). The number of viable cells was counted with a hemocytometer (Funakoshi Co., Ltd.). A cell suspension obtained by diluting with medium B such that the value obtained was 1.3×10^5 cells/mL was dispensed into a Falcon 96 well flat bottom plate (Corning Incorporated) at 75 μL/well, and culture was started at 37° C. under 5% CO2 stream. The next day, a solution obtained by diluting 4 mM DMSO solution of the test compound 100-fold with medium B was added by 25 μL to each well (final concentration of test compound 10 μM). 25 μL of a solution obtained by diluting DMSO 100-fold with medium B was added to the control well. After culturing at 37° C. in a 5% CO2 stream for 3 days, the cell proliferation activity was measured according to the instruction manual attached to WST-8 Kit (KISHIDA CHEMICAL Co., Ltd.).

[2] = tested on: MM.1S cells; assay: Human myeloma cell line MM.1S proliferation suppression test; settings: MM1.S, 72 h, compound 10 μM, 3 days, WST-1 or WST-8, read-out: cell survival rate (% of control) MM.1S
Protocol: Example 51: Human Myeloma Cell Line MM.1S Proliferation Suppression Test
MM.1S cells (ATCC, CRL-2974) were suspended in 10% fetal calf serum (Thermo Fisher Scientific)-containing RPMI1640 medium (ATCC, hereinafter abbreviated as medium B), and diluted as appropriate with 0.4% trypan blue solution (Sigma-Aldrich Co. LLC.). The number of viable cells was counted with a hemocytometer (ERMA INC.). It was diluted with medium B such that the value obtained was 2×10^5 cells/mL. On the other hand, 50 μL of a solution obtained by diluting 4 mM DMSO solution of the test compound 200-fold with medium B was added to each well of a Falcon 96-well flat bottom plate (Corning Incorporated), and the above-mentioned cell suspension was dispensed at 50 μL/well (final concentration of test compound 10 μM). 50 μL of a solution obtained by diluting DMSO 200-fold with medium B was added to the control well. After culturing at 37° C. in a 5% CO2 stream for 3 days, the cell proliferation activity was measured using WST-1 (DOJINDO LABORATORIES) or WST-8 Kit (KISHIDA CHEMICAL Co., Ltd.) and according to each instruction manual attached thereto.

[3] = tested on: Daudi cells; assay: Human Burkitt lymphoma cell line Daudi proliferation suppression test; settings: 72 h, compound 10 μM, 3 days, WST-8, read-out: cell survival rate (% of control) Daudi
Excerpt: Example 54: Human Burkitt Lymphoma Cell Line Daudi Proliferation Suppression Test
as §1, with “Daudi” for “REC-1”, “(National Institutes of Biomedical Innovation, Health and Nutrition (NIBIOHN), JCRB9071)” for “(ATCC, CRL-3004)”, “(ERMA INC.).” for “(Funakoshi Co., Ltd.).”

[4] = tested on: Pfeiffer cells; assay: Human diffuse large B-cell lymphoma cell line Pfeiffer proliferation suppression test; settings: 144 h, compound 10 μM, 3 days + re-plating with compound 3 days, WST-8, read-out: cell survival rate (% of control) Pfeiffer
Excerpt: Example 52: Human Diffuse Large B-Cell Lymphoma Cell Line Pfeiffer Proliferation Suppression Test
Pfeiffer cells (ATCC, CRL-2632) were suspended in medium B, and diluted as appropriate with 0.4% trypan blue solution (Sigma-Aldrich Co. LLC.). The number of viable cells was counted with a hemocytometer (Funakoshi Co., Ltd.). A cell suspension obtained by diluting with medium B such that the value obtained was 1.3×10^5 cells/mL was dispensed into a Falcon 96 well flat bottom plate (Corning Incorporated) at 75 μL/well, and culture was started at 37° C. under 5% CO2 stream. The next day, a solution obtained by diluting 4 mM DMSO solution of the test compound 100-fold with medium B was added by 25 μL to each well (final concentration of test compound 10 μM). 25 μL of a solution obtained by diluting DMSO 100-fold with medium B was added to the control well. After culturing at 37° C. in a 5% CO2 stream for 3 days, the cell culture medium was uniformly suspended with a multi channel pipette, 14 μL per well was transferred into another new Falcon 96 well flat bottom plate. A solution obtained by diluting 4 mM DMSO solution of the same test compound as the first time 400-fold with medium B was added by 86 μL to a total amount of 100 μL (final concentration of test compound 10 μM). After culturing at 37° C. in a 5% CO2 stream for 3 days, the cell proliferation activity was measured according to the instruction manual attached to WST-8 Kit (KISHIDA CHEMICAL Co., Ltd.).

[5] = tested on: Kasumi-7 cells; assay: Human acute lymphoblastic leukemia cell line Kasumi-7 proliferation suppression test; settings: 72 h, compound 10 μM, 3 days, WST-8, read-out: cell survival rate (% of control) Kasumi-7
Excerpt: Example 55: Human Acute Lymphoblastic Leukemia Cell Line Kasumi-7 Proliferation Suppression Test
Kasumi-7 cells (NIBIOHN, JCRB1401) were suspended in 20% fetal calf serum (Thermo Fisher Scientific, Inc.)-containing RPMI1640 medium (ATCC, hereinafter abbreviated as medium C), and diluted as appropriate with 0.4% trypan blue solution (Sigma-Aldrich Co. LLC.). The number of viable cells was counted with a hemocytometer (Funakoshi Co., Ltd.). A cell suspension obtained by diluting with medium C such that the value obtained was 1.3×10^5 cells/mL was dispensed into a Falcon 96 well flat bottom plate (Corning Incorporated) at 75 μL/well, and culture was started at 37° C. under 5% CO2 stream. The next day, a solution obtained by diluting 4 mM DMSO solution of the test compound 100-fold with medium C was added by 25 μL to each well (final concentration of test compound 10 μM). 25 μL of a solution obtained by diluting DMSO 100-fold with medium C was added to the control well. After culturing at 37° C. in a 5% CO2 stream for 3 days, the cell proliferation activity was measured according to the instruction manual attached to WST-8 Kit (KISHIDA CHEMICAL Co., Ltd.).

`O=C1CCC(N2C(=O)c3ccccc3C2=O)C(=O)N1` (centres unmarked) [Thalidomide, reference compound] gave a viability at 10 µM [1] of 94%, a viability at 10 µM [2] of 79% and a viability at 10 µM [3] of 81%. It also gave a viability at 10 µM [4] of 104% and a viability at 10 µM [5] of 96%.

Reference: patent US11299485B2, “Thiophene derivative and use thereof” (FUJIMOTO CO., LTD., priority 2018, dated 2022)
